Where “and” joins values, the source holds several entries; their conditions need not be identical. Equal entries are not always repeated.

The test system of test [1] is BEAS-2B (Normal lung epithelial cell). As to conditions: cited from earlier work.
A further test has as its system H1650. As to conditions: cited from earlier work.
The test system of the next test is H1975. As to conditions: cited from earlier work.
Test [2] relates to H1819. As to conditions: cited from earlier work.
The test system of test [3] is H1975 cells. The test is described as follows: Thin-layer chromatography of total cellular lipid, H1975. Conditions: H1975, 5 μM, 72 hours. The format is cell-based, human. As to the method: (§1) Cells were scraped from culture dish and resuspended in 2 ml PBS containing 1× protease inhibitor and 1 mM PMSF. Total cellular lipid was extracted by adding 4 ml chloroform/methanol (2:1). The mixture was vortexed for 1 min and centrifuged at 1500 g×5 min. The organic phase was collected and another 2.5 ml choloroform was added to the residual aqueous phase; the mixture was vortexted and centrifuged at 1500 g×5 min again. The organic phase was collected together with the previous extraction. Thin layer chromatography (TLC) was performed by spotting of the cellular total lipid extract to a 5×10 cm silica gel aluminum sheet and developed with hexane/diethyl ether/acetic acid (80:20:2). Lipids were visualized with iodine vapor and imaged using a desktop scanner
(§2) The overall lipid levels in H1975 and H1650 treated by Berberine were studied in this example. H1975 and H1650 cells were treated with 5 μM BBR for 72 hours and then total cellular lipid was extracted.

The next test has as its system CCNB1. The test is described as follows: Western blot analysis of CCNB1 protein level in H1975 cells. In kind it is cell-based, human. Conditions: 72 hrs.
A further test concerns A549 (EGFR^Wild type). The experiment in a line: MTT cytotoxicity assay, A549. Conditions: Homo sapiens, A549, 72 hrs, read-out: IC50 value after 72 hrs of treatment. The format is cell-based. The text has this:
(§3) This example described the BBR-induced cytotoxicity effect in six NSCLC cell lines utilizing MTT cytotoxicity assay. A549 is wild type EGFR and BEAS-2B is normal lung epithelial cells.

In test [4] the test system is H1650 (EGFR^Exon19 deletion). The test is described as follows: MTT cytotoxicity assay, H1650. The format is cell-based. As to conditions: Homo sapiens, NCI-H1650, H1650, 72 hrs, read-out: IC50 value after 72 hrs of treatment.
Description: as §3

The next test relates to HCC827. The experiment in a line: MTT cytotoxicity assay, HCC827. The format is cell-based. Conditions: Homo sapiens, HCC827, 72 hrs, read-out: IC50 value after 72 hrs of treatment.
Description: as §3

For a further test, the system named is CPT1C. The test is described as follows: Real-time PCR analysis of CPT1C RNA expression. The format is cell-based, human. Conditions: 24 hrs. How it is done: (§4) The RNA expression levels of CPT1C and SREBP1 in both H1975 and H1650 cell lines after being treated with 10 μM BBR for 24 hrs were analyzed by Real-time PCR analysis and Western blot analysis, as shown in FIGS. 2A-2D.

Test [5] has as its system H1650 cells. The test is described as follows: Cell cycle analysis of H1650. The format is cell-based, human. As to conditions: 72 hrs. The source says: (§5) The anticancer effect of berberine against two most BBR sensitive cell lines are further studied in Example 8, namely H1975 (EGFR^L858R+T790M) and H1650 (EGFR^Exon19 deletion).
The test system of another test is H1975 (EGFR^L858R+T790M). The test is described as follows: MTT cytotoxicity assay, H1975. In kind it is cell-based. As to conditions: Homo sapiens, NCI-H1975, H1975, 72 hrs, read-out: IC50 value after 72 hrs of treatment.
Description: as §3

The next test has as its system SREBP1. The experiment in a line: Real-time PCR analysis of SREBP1 RNA expression. In kind it is cell-based, human. As to conditions: 24 hrs. As to the method:
as §4

The test system of test [6] is H1975 cells. The test is described as follows: Cell cycle analysis of H1975. The format is cell-based, human. As to conditions: 72 hrs.
Description: as §5

In test [7] the test system is H1650 cells. The test is described as follows: Thin-layer chromatography of total cellular lipid, H1650. The format is cell-based, human. As to conditions: H1650, 5 μM, 72 hours. As to the method: as §1, §2
The subject of test [8] is H1819. The test is described as follows: MTT cytotoxicity assay, H1819. In kind it is cell-based. As to conditions: Homo sapiens, NCI-H1819, H1819, 72 hrs, read-out: IC50 value after 72 hrs of treatment.
Description: as §3

Test [9] has as its system BEAS-2B (Normal lung epithelial cell). The test is described as follows: MTT cytotoxicity assay, BEAS-2B. Conditions: Homo sapiens, 72 hrs, read-out: IC50 value after 72 hrs of treatment. In kind it is cell-based.
Description: as §3

Another test deals with CCND1. The test is described as follows: Western blot analysis of CCND1 protein level in H1975 cells. As to conditions: 72 hrs. In kind it is cell-based, human.

For the compound `COc1cc2ncnc(Nc3ccc(F)c(Cl)c3)c2cc1OCCCN1CCOCC1` [Gefitinib], the “Gefitinib Sensitivity” value in test [1] is listed as “Resistant”; in the test on H1650, “Resistant”; in the test on H1975, “Resistant”; in the test with H1819 [2], “Moderately sensitive”.
In the case of `COc1ccc2cc3[n+](cc2c1OC)CCc1cc2c(cc1-3)OCO2` [BBR, berberine], the “overall lipid levels (TLC)” value with H1975 cells [3] and in the test with H1650 cells [7] was “lower the overall lipid levels” throughout. Moreover, in the test with CCNB1, the “protein level of CCNB1 (Western blot)” value is given as “down-regulated”. In addition, the concentration for half-maximal inhibition (IC50) with A549 (EGFR^Wild type) came out at 11.2 ± 3.98 µM; in test [4], 6 ± 2.78 µM; in the test on HCC827, 8.9 ± 4.4 µM; in the test with H1975 (EGFR^L858R+T790M), 2.92 ± 0.49 µM; with H1819 [8] it was 6.51 ± 2.09 µM; in test [9], 24.7 ± 12.4 µM. Also, the “increase of RNA expression level of CPT1C vs vehicle control” value with CPT1C (H1650, 10 μM) was 5.92 times; in the test with CPT1C (H1975, 10 μM) it was 2.005 times. Further, the “decrease of percentage of G0/G1 phase vs control” value with H1650 cells [5] (H1650, 5 μM) came to 21.1%; with H1650 cells [5] (H1650, 10 μM), 18.3%; in the test on H1975 cells [6] (H1975, 5 μM) it was 11.5%; in the test on H1975 cells [6] (H1975, 10 μM), 14%. In addition, the “decrease of RNA expression level of SREBP1 vs vehicle control” value in the test with SREBP1 (H1650, 10 μM) turned out to be 2.64 times; with SREBP1 (H1975, 10 μM) it was 9.23 times. Moreover, the “increase of G2 phase vs control” value was 11% in the test on H1975 cells [6] (H1975, 5 μM); 15.73% and 15.7% in the test on H1975 cells [6] (H1975, 10 μM). Moreover, in the test with CCND1, the “protein level of CCND1 (Western blot)” value is recorded as “down-regulated”.

The values above are taken from US20150307508A1, “Application of an alkaloid derived from a Chinese herbal for treatment of cancer by inhibiting cholesterol synthesis and fatty acid oxidation” (Macau University of Science and Technology, priority 2014, published 2015).
